From PMC5989765, “The safety, tolerability, and pharmacokinetic profile of GSK2838232, a novel 2nd generation HIV maturation inhibitor, as assessed in healthy subjects” (Pharmacology Research & Perspectives, 2018)
Entries after “also recorded” stand apart in the source; their conditions may differ.

Tests used:
[1] = Pharmacokinetics in healthy subjects, statements across the Phase I studies; format: in vivo, human; conditions: for half-life: human, plasma, oral
Method: (§1) Blood samples were taken via an indwelling cannula or by direct venipuncture, collected into a di‐potassium ethylenediaminetetraacetic acid (K2 EDTA) tube, and placed on wet ice. Samples were centrifuged at approximately 1500g for 10 minutes at approximately 4°C. Exactly 500 μL of the resulting plasma was transferred into labeled 1.4 mL Matrix TrakMate Tubes containing exactly 500 μL of 50 mmol/L citrate buffer, pH 4.0, and mixed well. When 500 μL of plasma was not able to be transferred, the ratio of plasma to citrate buffer was kept at 1:1. Buffered plasma samples were kept on ice and frozen at −70°C within 1 hour of collection. Plasma samples were analyzed for GSK2838232 using a validated analytical method based on protein precipitation, followed by high performance liquid chromatography with tandem mass spectrometry (HPLC/MS/MS) analysis.
(§2) Extracts were analyzed using HPLC (Shimadzu, Nexera, 30 series) and tandem mass spectrometry detection (HPLC‐MS/MS). The mass spectrometer used was an API‐5500 using IonSpray interface (500 V) in positive mode monitoring. The mass transitions were 809.5 to 255.1 and 816.5 to 262.1 for GSK2838232 and [2H7] GSK2838232 (the isotopically labeled internal standard), respectively. The chromatographic conditions utilized a Waters Acquity UPLC BEH C18 column (50 × 2.1 mm, 1.7 μm) with mobile phases consisting of 1 mmol/L ammonium formate:formic acid (100:0.005) (mobile phase A) and acetonitrile:formic acid (100:0.1) (mobile phase B) at a flow rate of 0.6 mL/min, with pump B at 63% held for 2 minutes. The assay was validated to have precision (%RSD) of 0.7%‐6.5% (within‐run) and 1.0%‐5.9% RSD (between‐run) and with accuracy (%bias) of 0.0%‐1.6%. […] The lower limit of quantification (LLQ) was 0.5 ng/mL, using a 50 μL aliquot of K2EDTA acidified plasma. The higher limit of quantification (HLQ) was 500 ng/mL.
(§3) The PK parameters were calculated by standard noncompartmental analysis based on actual sampling times using WinNonlin Version 6.3 or higher. Estimation of AUC used the linear up/log down trapezoidal rule.

[2] = Study 204953 Part 1B: relative bioavailability capsule versus API PiB and food effect, with RTV; format: in vivo
Method: This study was planned as an extension of the previously conducted single‐ and multiple‐dose escalation studies described above. It was a double‐blind, placebo‐controlled, single and repeat dose escalation study of micronized API GSK2838232 with RTV conducted in three parts (Part 1A, Part 1B, and Part 2).
In Part 1A, a cohort of subjects was given single doses of 50, 100, and 250 mg of GSK2838232 with RTV, following 2 days of RTV predosing, in a sequential dose‐escalation design. Part 1B studied the relative bioavailability of GSK2838232 given as 100 mg (2 × 50 mg) capsules versus the reference API (PiB) in a two‐period crossover design with RTV, following 2 days of RTV predosing. In Period 3, subjects took the capsule formulation and RTV with a moderate fat meal (30% of calories from fat).
as §1, §2, §3
For the assessment of relative bioavailability of the capsule formulation compared to the PiB suspension and of the food effect using the capsule formulation (all with RTV), PK parameters were separately analyzed for each treatment using a mixed effects model with fixed effect terms for period and treatment following loge transformation. Subject was treated as a random effect in the model. Point estimates and their associated 90% CIs were constructed for the differences in PK parameter values between the test and reference treatments. The point estimates and their associated 90% CIs were then back‐transformed to provide point estimates and 90% CIs for the ratios of PK parameters from test and reference treatments on the original scale.

[3] = 100 mg Fed (moderate, 30% fat meal) versus 100 mg fasted, API capsule formulation with RTV, Study 204953
[4] = Capsule : API PiB, single 100 mg + ritonavir, Study 204953

In the case of `CC(C)C1=C2[C@H]3CC[C@@H]4[C@@]5(C)CC[C@H](OC(=O)CC(C)(C)C(=O)O)C(C)(C)[C@@H]5CC[C@@]4(C)[C@]3(C)CC[C@@]2([C@@H](O)CN(CCN(C)C)Cc2ccc(Cl)cc2)CC1=O` [GSK2838232], the positive food effect ([1]; capsule formulation discussion) is reported as “about 1.5 fold”, the “metabolite detected in human plasma” value ([1]; co‐administration with RTV) is reported as “O‐glucuronide” and the absorption with food ([1]; fed state (moderate or high fat meal)) is reported as “delayed and more variable”. For the same compound, the “increase in AUC with food” value ([1]; fed versus fasted) was ~ 60%, the “increase in C max with food” value ([1]; fed versus fasted) was ~ 60% and the half-life ([1]; nonboosted) was ~17 h. For the same compound, the half-life ([1]; with RTV) was ~34 h, the “dose proportionality of AUC and C max” value ([1]; single doses without RTV, 5‐100 mg (SDD, fasted)) was “proportional PK; also recorded: proportional to dose; also recorded: proportional pharmacokinetics” and the “Geometric least square mean ratio [90% CI], AUC(0‐∞)” value [2, 3] was 1.58 (1.412,1.777). For the same compound, the “Geometric least square mean ratio [90% CI], C max” value [2, 3] was 1.62 (1.376,1.911), the “Ratio of Geometric Least Square Means, AUC(0‐∞)” value [2, 4] was 1.43 and the “Ratio of Geometric Least Square Means, C max” value [2, 4] was 1.58. The “bioavailability after meal relative to the fasted state” value ([2]; capsule formulation with RTV, moderate fat (30%) meal, Study 204953) was “approximately 1.6 fold”, the “C24, capsule relative to PiB suspension” value ([2]; single 100 mg with RTV) was 1.4 fold and the “C max, capsule relative to PiB suspension” value ([2]; single 100 mg with RTV) was 1.6 fold. The “t½ geometric LS mean ratio, capsule versus PiB” value ([2]; single 100 mg with RTV, data not shown) was “no difference”.
